# Like-named read-outs stand apart in the source and are kept apart here.
# Experiments:
# T98G cells [1] = experiment: Cell viability, Alamar Blue, 7-day incubation, T98G; type: cell-based; conditions: Homo sapiens, 168 h, MGMT +, error SEM
# Protocol: (§1) Anticancer activity of C8 substituted imidazotetrazines. With a suite of imidazotetrazines in hand, each compound was evaluated against a panel of human GBM cell lines (Table 1a, Table 1b).
# U87 cells = experiment: Cell viability, Alamar Blue, 7-day incubation, U87; type: cell-based; conditions: Homo sapiens, U-87 MG, 168 h, MGMT −, error SEM
# Protocol: as §1
# physchem = conditions: buffered saline (PBS), pH 7.4
# Protocol: Hydrolytic stability of C8 substituted imidazotetrazines. […] A HPLC assay was developed to quantify the fraction of intact prodrug remaining in solution after 2 hours at pH 7.4, 37° C.
# D54 cells = experiment: Cell viability, Alamar Blue, 7-day incubation, D54; type: cell-based; conditions: Homo sapiens, D54, 168 h, MGMT −, error SEM
# Protocol: as §1
# [2] = tested on: GBM Br23c oncospheres intracranially implanted; experiment: Intracranial mouse model of GBM (Br23c oncospheres); type: in vivo; conditions: oral gavage, 15 mg/kg TMZ or equimolar dose
# From the text: FIG. 5. Evaluation of imidazotetrazines in intracranial mouse models of GBM. GBM Br23c oncospheres were intracranially implanted into female athymic nude mice. Treatment was started 5 days post implantation. […] Compounds were formulated in 10% PEG in PBS immediately prior to each treatment. Number of mice per treatment cohort≥5. Survival curves were compared using log-rank test.
# in vivo Efficacy Models. Human GBM Br23c stem-like neurosphere cells were intracranially implanted in female athymic nude mice (150,000 cells/mouse). […] Mice were observed daily for any signs of deterioration, neurotoxicity, or movement disorders. They were inspected for signs of pain and distress, as in accordance with the Johns Hopkins Animal Care and Use Guidelines.
# [3] = cited from earlier work
# [4] = tested on: Br23c GBM oncosphere cell line; experiment: Cell viability, Alamar Blue, 7-day, Br23c GBM oncosphere line; type: cell-based; conditions: Homo sapiens, 168 h, error SEM, read-out: 7-day IC50 MGMT − Br23C
# human GBM cell lines = experiment: Viability in panel of human GBM cell lines; type: cell-based
# Protocol: as §1
# [5] = Assessment of hematological toxicity in vivo; conditions: mice
# Protocol: Assessment of hematological toxicity. […] Both lymphocyte (FIG. 3b) and neutrophil (FIG. 8a) concentrations were decreased in TMZ-treated mice. […] Total WBC, lymphocyte, and neutrophil counts for mice treated with these compounds were equivalent to those of control mice.
# Assessment of Hematological Toxicity. Male CD-1 IGS mice (n=4 mice/group) were administered a single dose of 125 mg/kg compound intravenously. Imidazotetrazines were formulated with SBEβCD in sterile water immediately prior to injection. Seven days post-treatment, mice were humanely sacrificed and whole blood was collected for assessment of total white blood cells, lymphocytes, neutrophils, platelets, and red blood cells.
# glioblastoma = conditions: cited from earlier work
# [6] = Stability in the absence of microsomes (microsomes replaced with PBS); type: physicochemical; conditions: liver microsomes replaced with PBS, percentage remaining relative to t0
# Protocol: (§2) Liver microsome stability.
# (§3) Mouse Liver Microsome Stability Assay. A mixture of PBS (pH 7.4), NADPH regenerating system solution A (Corning Life Sciences), and NADPH regenerating system solution B (Corning Life Sciences) was incubated at 37° C. in a shaking incubator for 5 min. Next, compound was added in DMSO (final concentration 50 μM, 0.5% DMSO) before ice-cold mouse liver microsomes (Thermo Fisher, male CD-1 mice, pooled) were added (final protein concentration of 1 mg/mL). An aliquot was immediately removed, quenched with an equal volume of 100 μM internal standard and 0.5% hydrochloric acid in ice-cold acetonitrile, and centrifuged at 13,000 rcf for 3 min. The supernatant was diluted 1:5 in ddH2O and analyzed by LC-MS. The reactions were incubated at 37° C. in a shaking incubator for 2 h. A second aliquot was removed, quenched and diluted as before and analyzed by LC-MS. The ratio of the areas of analyte:internal standard at 2 hours was compared to the ratio at t0 to determine the percentage of compound remaining. Analysis was performed on an Agilent 6230 LC/MS TOF system with a 1.8 μm, 2.1×50 mm Agilent ZORBAX Eclipse Plus C18 column.
# genomic DNA of U87 cells = experiment: O6-methyldeoxyguanosine quantitation in U87 cells; type: cell-based, human; conditions: 100 or 1000 μM, 8 hours
# Protocol: Novel imidazotetrazines induce alkylation-mediated cancer cell death. […] After 8 hours of incubation with compound, the genomic DNA was isolated, quantified, and hydrolyzed to its constituent deoxyribonucleosides, which were quantitated via LC-MS/MS analysis. […] Further confirmation that the novel compounds remain DNA alkylators was obtained upon pre-treatment with MGMT inhibitor O^6-benzylguanine (O6BG). O6BG is a pseudosubstrate for MGMT that quenches cellular stores of the enzyme, leading to the persistence of O^6-methylguanine DNA adducts.
# O^6-Methyldeoxyguanosine Quantitation. U87 cells were plated at 1×10^6 c/w in a 6-well plate before they were treated with compound at the indicated concentration (1% final concentration DMSO). After 8 h incubation, the cells were harvested and pelleted. Genomic DNA was extracted using the DNeasy Blood & Tissue Kit (Qiagen, ID: 69504). DNA was then precipitated using the following procedure: 1/10 v/v 3M sodium acetate (pH 5.2) and 2.5× v/v ethanol was added to each sample which was then kept at −80° C. for 1 h. […] The concentration of DNA in each sample was quantified measuring absorbance on a NanoDrop 2000 UV-Vis Spectrophotometer (Thermo Fisher). […] Hydrolyzed samples were then submitted for LC-MS/MS quantitation. Samples were analyzed with a 5500 QTRAP LC/MS/MS system (AB Sciex) with a 1200 series HPLC system (Agilent).
# T98G cells [7] = experiment: cells; type: cell-based
# Protocol: FIG. 4. Imidazotetrazines were added to T98G cells with or without 3 h pre-treatment of O6BG (100 μM). IC50 values after 7-day incubation and fold changes between (+/−) O6BG treatments are reported. […] Error is SEM, n≥3. Statistical significance was determined by using a two-sample Student's t-test (two-tailed test, assuming equal variance).
# [8] = Mouse liver microsome stability assay; type: in vitro ADME
# Protocol: as §2, §3
# [9] = Table 1a, 7 days, read-out: IC50 T98G
# [10] = Table 1a, 7 days, n ≥ 3, read-out: IC50 U87
# [11] = Table 1a, 7 days, read-out: IC50 D54
smiles,measurement,setting,value
"Cc1ncn2c(=O)n(C)nnc12 [Compound 14, 3,8-dimethylimidazo[5,1-d][1,2,3,5]tetrazin-4(3H)-one]",IC50,T98G cells [1]; [9],6 ± 1 µM
same,IC50,U87 cells; [10],3 ± 1 µM
same,half-life,physchem,2400 min
same,IC50,D54 cells; [11],6 ± 3 µM
same,effect on survival in words,[2],no effect
"Cn1nnc2c(C(N)=O)ncn2c1=O [TMZ, temozolomide, reference compound]",IC50,T98G cells [1]; [9],660 ± 10 µM
same,IC50,"T98G cells [1]; Table 1b, read-out: 7-day IC50 T98G",660 ± 10 µM
same,IC50,U87 cells; [10],51 ± 8 µM
same,IC50,"U87 cells; Table 1b, read-out: 7-day IC50 U87",51 ± 8 µM
same,cerebral spinal fluid concentrations as percent of those in the plasma,[3]; humans,20%
same,half-life,[3]; in vivo and in aqueous solutions in vitro,~2 h
same,IC50,[4],5.2 ± 0.2 µM
same,IC50,D54 cells; [11],12 ± 1 µM
same,IC50,"D54 cells; Table 1b, read-out: 7-day IC50 D54",12 ± 1 µM
same,effect on survival in words,[2],significantly increased median survival compared with vehicle
same,IC50,"human GBM cell lines; GBM cell lines with negligible MGMT expression, read-out: IC50 in cell lines with negligible MGMT expression",≤ 50 µM
same,IC50,"human GBM cell lines; GBM cell lines with significant MGMT expression, read-out: IC50 in cell lines with significant MGMT expression",> 300 µM
same,Cohort weight 7 days Post,"[5]; 7 days after single IV dose of 125 mg/kg, error SEM, 4 mice",32 ± 1 g
same,Cohort weight Pre-treatment,"[5]; prior to single IV dose of 125 mg/kg, error SEM, 4 mice",31 ± 1 g
same,myelosuppression / white blood cell effect,"[5]; single IV dose 125 mg/kg, complete blood count after 7 days",white blood cell (WBC) depletion
same,myelotoxicity incidence in treated patients,glioblastoma; TMZ-treated patients,~20%
same,median survival,glioblastoma; patients whose tumors do not express MGMT,approximately two
same,"Stability (2 h, No Microsomes)",[6],86 ± 4%
same,concentration of O6-methylated deoxyguanosine,genomic DNA of U87 cells,Dose dependent increases
same,IC50,"T98G cells [7]; Homo sapiens, 168 h, without O6BG, 7-day incubation",660 ± 10 µM
same,enhancement in cytotoxicity after O6BG pre-incubation,T98G cells [7]; O6BG 100 μM,eight-fold
same,"Stability (2 h, Microsomes)","[8]; 2 h, percentage remaining relative to t0, error SEM, n ≥ 2",87 ± 6%
same,metabolic stability in words,"[8]; mouse liver microsomes, 2 hours",insensitive to metabolic perturbation
